Test results from patent US7514452B2, “2-furancarboxylic acid hydrazides and pharmaceutical compositions containing the same” (Dainippon Pharmaceutical Co., Ltd, priority 2002, dated 2009).

How the values were obtained:
glucagon receptor [1] = target: glucagon receptor (Rattus norvegicus, UniProt P30082); test: Experiment for glucagon binding inhibition, rat hepatic membrane (125I-glucagon); settings: male SD rat hepatic membrane, 125I-glucagon 50 pM, 25° C. for 30 minutes; read-out: Glucagon binding inhibitory activity IC50 (nM) Rat
Experimental: (§1) The preparation of membrane from mouse and rat livers was carried out according to the method described in Bioorg. Med. Chem. Lett. 1992, 12, 915-918 in this experiment and ^125I-glucagon binding activity was measured with these membranes as glucagon receptor's samples. Livers were removed from male SD rats (about 250 g body weight per rat) and male ddY mice (about 30 g body weight per mouse). […] The homogenate was centrifuged for 15 minutes at 30,000×g. […] The precipitaion thus obtained was used as a hepatic membrane sample. […] The mixture was incubated at 25° C. for 30 minutes. […] The filter was washed 3 times with 50 mM Tris-HCl buffer (pH 7.2), and the radioactivity of the filter was measured by a γ counter (ARC-360, Aloka Co., Ltd.). […] Each experiment was carried out in duplicate. […] The concentration at 50% inhibition of binding (IC50) was calculated using a pseudo Hill plot.

glucagon receptor [2] = target: glucagon receptor (Mus musculus, UniProt Q61606); test: Experiment for glucagon binding inhibition, mouse hepatic membrane (125I-glucagon); settings: male ddY mouse hepatic membrane, 125I-glucagon 50 pM, 25° C. for 30 minutes; read-out: Glucagon binding inhibitory activity IC50 (nM) Mouse
Experimental: as §1

Sequence of glucagon receptor (Mus musculus, UniProt Q61606) (Q61606 27-485): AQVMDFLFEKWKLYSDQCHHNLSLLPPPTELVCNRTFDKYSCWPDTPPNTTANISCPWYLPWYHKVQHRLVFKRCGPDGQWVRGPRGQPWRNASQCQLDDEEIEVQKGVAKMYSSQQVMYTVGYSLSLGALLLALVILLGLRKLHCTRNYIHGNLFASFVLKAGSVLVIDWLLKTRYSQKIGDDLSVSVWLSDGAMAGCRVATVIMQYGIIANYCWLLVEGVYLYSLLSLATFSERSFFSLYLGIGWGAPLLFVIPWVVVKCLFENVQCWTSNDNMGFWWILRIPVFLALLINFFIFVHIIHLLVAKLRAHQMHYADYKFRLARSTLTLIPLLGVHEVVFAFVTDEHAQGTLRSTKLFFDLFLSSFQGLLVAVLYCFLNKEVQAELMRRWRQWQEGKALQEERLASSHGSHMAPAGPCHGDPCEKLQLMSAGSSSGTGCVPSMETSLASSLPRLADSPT
Sequence of glucagon receptor (Rattus norvegicus, UniProt P30082) (P30082 27-485): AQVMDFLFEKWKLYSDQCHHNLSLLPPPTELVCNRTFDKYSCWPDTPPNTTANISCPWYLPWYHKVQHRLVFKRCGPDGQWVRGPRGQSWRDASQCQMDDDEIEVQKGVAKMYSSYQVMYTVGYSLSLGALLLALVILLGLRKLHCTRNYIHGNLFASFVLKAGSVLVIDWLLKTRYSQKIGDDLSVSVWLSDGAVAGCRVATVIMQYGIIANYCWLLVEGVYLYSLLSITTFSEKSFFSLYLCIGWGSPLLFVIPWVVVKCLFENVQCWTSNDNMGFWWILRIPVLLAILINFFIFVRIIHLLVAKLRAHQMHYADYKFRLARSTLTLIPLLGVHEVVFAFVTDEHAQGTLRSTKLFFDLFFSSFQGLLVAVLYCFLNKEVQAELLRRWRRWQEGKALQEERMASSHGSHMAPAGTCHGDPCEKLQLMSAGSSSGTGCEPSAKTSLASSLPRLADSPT

SMILES	melting point [°C]	IC50 (glucagon receptor [1]) [nM]	IC50 (glucagon receptor [2]) [nM]
CC(=O)N(Cc1ccccc1)c1cccc(-c2ccoc2C(=O)NNC(=O)c2ccc(O)c(C#N)c2)c1	221 to 222	–	–
N#Cc1cc(C(=O)NNC(=O)c2occc2-c2cccc(NC(=O)OCc3ccccc3)c2)ccc1O	179 to 181	–	–
O=C(NNC(=O)c1occc1-c1ccncc1)c1ccc(O)c([N+](=O)[O-])c1	237	–	–
Cc1cc(C)c(C)c(COc2cccc(-c3coc(C(=O)NNC(=O)c4ccc(O)c([N+](=O)[O-])c4)c3-c3cccc(OCc4c(C)c(C)cc(C)c4C)c3)c2)c1C	174 to 175	–	–
COc1ccc(C(=O)NNC(=O)c2occ(-c3ccccc3)c2-c2ccccc2)cc1C#N	220 to 225	–	–
COc1ccc(C(=O)NNC(=O)c2occ(-c3ccccc3)c2-c2ccccc2)cc1[N+](=O)[O-]	150 to 158	–	–
Cc1ccccc1COc1cccc(-c2ccoc2C(=O)NNC(=O)c2ccc(O)c(C#N)c2)c1	178 to 180	–	–
CS(=O)(=O)Oc1cccc(-c2ccoc2C(=O)NNC(=O)c2ccc(O)c([N+](=O)[O-])c2)c1	170 to 171	–	–
CC(C)(C)OC(=O)c1cc(C(=O)NNC(=O)c2occc2-c2ccccc2)ccc1O	147 to 154	–	–
O=C(NNC(=O)c1occc1-c1ccccc1)c1ccc(O)c(C(=O)O)c1	250 to 251	–	–
O=C(NNC(=O)c1occ(-c2ccccc2)c1-c1ccccc1)c1cccs1	132 to 135	–	–
Cc1ccc(-c2ccoc2C(=O)NNC(=O)c2ccc(O)c(Cl)c2)cc1	240 to 242	–	–
O=C(NNC(=O)c1occ(-c2ccccc2)c1-c1ccccc1)c1ccncc1	115 to 120	–	–
O=C(NNC(=O)c1occ(-c2ccccc2)c1-c1ccccc1)c1ccccn1	190 to 192	–	–
COc1ccc(C(=O)NNC(=O)c2occ(-c3ccccc3)c2-c2ccccc2)cc1Cl	203 to 207	–	–
O=C(NNC(=O)c1occ(-c2ccccc2)c1-c1ccccc1)c1ccc(O)c(Cl)c1	197 to 199	–	–
C=Cc1coc(C(=O)NNC(=O)c2ccc(O)c(C#N)c2)c1-c1ccccc1	175 to 177	–	–
CCc1c(-c2ccccc2)coc1C(=O)NNC(=O)c1ccc(O)c(C#N)c1	190 to 192	–	–
CCc1coc(C(=O)NNC(=O)c2ccc(O)c(C#N)c2)c1-c1ccccc1	186 to 188	–	–
COc1ccc(C(=O)NNC(=O)c2occ(-c3ccccc3)c2-c2ccccc2)cc1OC	181 to 184	–	–
COc1ccc(C(=O)NNC(=O)c2occ(-c3ccccc3)c2-c2ccccc2)c(OC)c1	240 to 242	–	–
COc1c(Cl)cc(C(=O)NNC(=O)c2occ(-c3ccccc3)c2-c2ccccc2)cc1Cl	229 to 230	–	–

SMILES	melting point [°C]	IC50 (glucagon receptor [1]) [nM]	IC50 (glucagon receptor [2]) [nM]
O=C(NNC(=O)c1occ(-c2ccccc2)c1-c1ccccc1)c1ccc(O)c(O)c1	242 to 244	–	–
O=C(NNC(=O)c1occ(-c2ccccc2)c1-c1ccccc1)c1ccc(O)cc1O	285 to 288	–	–
O=C(NNC(=O)c1occ(-c2ccccc2)c1-c1ccccc1)c1cc(Cl)c(O)c(Cl)c1	261 to 263	–	–
O=C(NNC(=O)c1occ(-c2ccccc2)c1-c1ccccc1)c1ccc(O)c(-c2ccccc2)c1	217 to 218	–	–
N#Cc1cc(C(=O)NNC(=O)c2occ(-c3ccc(F)cc3)c2-c2ccc(F)cc2)ccc1O [Example 45, 3,4-Bis(4-fluorophenyl)-2-furancarboxylic acid 2-(3-cyano-4-hydroxybenzoyl)hydrazide]	243 to 245	220	120
CCCCOc1cccc(-c2ccoc2C(=O)NNC(=O)c2ccc(O)c(C#N)c2)c1 [Example 107, 3-(3-Butoxyphenyl)-2-furancarboxylic acid 2-(3-cyano-4-hydroxybenzoyl)hydrazide]	186 to 188	140	360
Cc1cc(C)c(C)c(COc2ccc(-c3ccoc3C(=O)NNC(=O)c3ccc(O)c([N+](=O)[O-])c3)cc2)c1C [Example 113, 3-[4-(2,3,5,6-Tetramethylbenzyloxy)phenyl]-2-furancarboxylic acid 2-(4-hydroxy-3-nitrobenzoyl)hydrazide]	203 to 204	28	43
Cc1ccccc1COc1cccc(-c2ccoc2C(=O)NNC(=O)c2ccc(O)c([N+](=O)[O-])c2)c1 [Example 119, 3-[3-(2-methylbenzyloxy)phenyl]-2-furancarboxylic acid 2-(4-hydroxy-3-nitrobenzoyl)hydrazide]	114 to 115	16	9.6
CS(=O)(=O)c1ccc(COc2cccc(-c3ccoc3C(=O)NNC(=O)c3ccc(O)c([N+](=O)[O-])c3)c2)cc1 [Example 120, 3-[3-(4-Methylsulfonylbenzyloxy)phenyl]-2-furancarboxylic acid 2-(4-hydroxy-3-nitrobenzoyl)hydrazide]	114 to 117	37	27
Cc1cccc(COc2cccc(-c3ccoc3C(=O)NNC(=O)c3ccc(O)c([N+](=O)[O-])c3)c2)c1 [Example 123, 3-[3-(3-Methylbenzyloxy)phenyl]-2-furancarboxylic acid 2-(4-hydroxy-3-nitrobenzoyl)hydrazide]	144 to 145	33	65
Cc1ccc(COc2cccc(-c3ccoc3C(=O)NNC(=O)c3ccc(O)c([N+](=O)[O-])c3)c2)cc1 [Example 126, 3-[3-(4-Methylbenzyloxy)phenyl]-2-furancarboxylic acid 2-(4-hydroxy-3-nitrobenzoyl)hydrazide]	159 to 161	14	15
Cc1ccc(C)c(COc2cccc(-c3ccoc3C(=O)NNC(=O)c3ccc(O)c([N+](=O)[O-])c3)c2)c1 [Example 127, 3-[3-(2,5-Dimethylbenzyloxy)phenyl]-2-furancarboxylic acid 2-(4-hydroxy-3-nitrobenzoyl)hydrazide]	131 to 132	8.6	7.8
Cc1ccc(COc2cccc(-c3ccoc3C(=O)NNC(=O)c3ccc(O)c([N+](=O)[O-])c3)c2)c(C)c1 [Example 128, 3-[3-(2,4-Dimethylbenzyloxy)phenyl]-2-furancarboxylic acid 2-(4-hydroxy-3-nitrobenzoyl)hydrazide]	172 to 173	3.4	2.8
Cc1ccc(COc2cccc(-c3ccoc3C(=O)NNC(=O)c3ccc(O)c([N+](=O)[O-])c3)c2)cc1C [Example 129, 3-[3-(3,4-Dimethylbenzyloxy)phenyl]-2-furancarboxylic acid 2-(4-hydroxy-3-nitrobenzoyl)hydrazide]	157 to 162	5.2	6.1
CS(=O)(=O)c1ccc(COc2cccc(-c3ccoc3C(=O)NNC(=O)c3ccc(O)c(C#N)c3)c2)cc1 [Example 136, 3-[3-(4-methylsulfonylbenzyloxy)phenyl]-2-furancarboxylic acid 2-(3-cyano-4-hydroxybenzoyl)hydrazide]	235 to 237	96	48
CS(=O)(=O)Nc1ccccc1COc1cccc(-c2ccoc2C(=O)NNC(=O)c2ccc(O)c([N+](=O)[O-])c2)c1 [Example 138, 3-[3-(2-Methylsulfonylaminobenzyloxy)phenyl]-2-furancarboxylic acid 2-(4-hydroxy-3-nitrobenzoyl)hydrazide]	–	15	23
CCCCc1ccc(-c2ccoc2C(=O)NNC(=O)c2ccc(O)c([N+](=O)[O-])c2)cc1 [Example 142, 3-(4-butylphenyl)-2-furancarboxylic acid 2-(4-hydroxy-3-nitrobenzoyl)hydrazide]	190 to 193	5.5	9.3
O=C(NNC(=O)c1occc1-c1ccccc1)c1ccc(O)c([N+](=O)[O-])c1 [Example 143, 3-Phenyl-2-furancarboxylic acid 2-(4-hydroxy-3-nitrobenzoyl)hydrazide]	154 to 156	89	56
Cc1cccc(-c2ccoc2C(=O)NNC(=O)c2ccc(O)c([N+](=O)[O-])c2)c1 [Example 145, 3-(3-Methylphenyl)-2-furancarboxylic acid 2-(4-hydroxy-3-nitrobenzoyl)hydrazide]	126 to 128	100	190
Cc1ccc(-c2ccoc2C(=O)NNC(=O)c2ccc(O)c([N+](=O)[O-])c2)cc1 [Example 146, 3-(4-Methylphenyl)-2-furancarboxylic acid 2-(4-hydroxy-3-nitrobenzoyl)hydrazide]	180 to 182	27	38
Cc1ccc(-c2ccoc2C(=O)NNC(=O)c2ccc(O)c([N+](=O)[O-])c2)cc1C [Example 150, 3-(3,4-Dimethylphenyl)-2-furancarboxylic acid 2-(4-hydroxy-3-nitrobenzoyl)hydrazide]	127 to 129	90	73
CC(=O)Nc1ccccc1COc1cccc(-c2ccoc2C(=O)NNC(=O)c2ccc(O)c([N+](=O)[O-])c2)c1 [Example 179, 3-[3-(2-Acetylaminobenzyloxy)phenyl]-2-furancarboxylic acid 2-(4-hydroxy-3-nitrobenzoyl)hydrazide]	–	63	28
